Results reported in PMC9603170, “Protein Kinase C Inhibitors Reduce SARS-CoV-2 Replication in Cultured Cells” (Microbiology Spectrum, 2022).
Where two headings read alike, the source gives them in different places.

Key:
[1] = tested on: GFP- or Renilla luciferase-expressing plasmids; assay type: cell-based, hamster; conditions: BHK-21, 24 h posttransfection; for GFP levels vs DMSO-treated cells: Western blot
BHK-21 cells = experiment: CCK8 cell viability assay in BHK-21 cells; assay type: cell-based, hamster; conditions: 24 h
Procedure: (§1) Cell viabilities were analyzed using cell counting kit 8 (CCK8) (catalog no. HY-K0301; MCE) according to the manufacturer’s instructions. Ten microliters of the CCK8 reagent was added to each well of a 96-well plate. After incubation at 37°C for 1 h, optical density (OD) values were measured at 450 nm using a BioTek instrument. The CC50 was calculated by nonlinear regression analysis.

Huh7 cells = experiment: CCK8 cell viability assay in Huh7 cells; assay type: cell-based, human; conditions: human Huh7 cells; 24 h
Procedure: as §1

wild-type SARS-CoV-2 [2] = assay type: cell-based; conditions: A549-ACE2; pretreated 1 h; MOI 0.8; 24 h p.i.; DMSO 20%
[3] = tested on: Zika virus (ZIKV) replicon; experiment: ZIKV replicon luciferase assay in BHK-21 cells; assay type: cell-based; conditions: both 6 and 24 h posttransfection
Procedure: FIG 4 PKC inhibitors play an antiviral role during the early stage of SARS-CoV-2 replication. (A to E) Effect of PKC inhibitors on protein translation. BHK-21 cells were pretreated with DMSO or the indicated inhibitors for 1 h, followed by transfection with SARS-CoV-2 replicon RNA, GFP- or Renilla luciferase-expressing plasmids, or ZIKV replicon RNA. Luciferase assays or Western blot assays were performed at the indicated hours after transfection. MW, molecular weight; RLU, relative luciferase units. (F) Effect of PKC inhibitors on 3CL^pro activity. The protein activities were determined using a 2019 nCoV M^pro/3CL^pro inhibitor screening kit. SARS-CoV-2 3CL^pro, the substrate, and the inhibitors were incubated at 37°C for 5 min, and […] were measured at 490 nm using a multimode plate reader. […] P values were calculated by ANOVA with Dunnett’s multiple-comparison test or unpaired, two-tailed Student’s t tests (*, P < 0.05; **, P < 0.01; ***, P < 0.001; ****, P < 0.0001; NS, not significant).
To test whether these inhibitors specifically block viral protein translation, we compared the expression levels of ectopically expressed green fluorescent protein (GFP) or Renilla luciferase in the absence and presence of the PKC inhibitor. At 24 h posttransfection, the GFP protein levels or relative Renilla luciferase activities were determined by a Western blot or luciferase assay. […]

SARS-CoV-2 replicon [4] = experiment: microbe, parasite or virus in culture; assay type: cell-based; conditions: for IC50: BHK-21 cells, read-out: IC50, SARS-CoV-2 replicon luciferase activity
wild-type SARS-CoV-2 [5] = experiment: Wild-type SARS-CoV-2 infection of A549-ACE2 cells, qRT-PCR of supernatant viral RNA; assay type: cell-based; conditions: 10 μM inhibitor, MOI 0.8, 24 h p.i.
SARS-CoV-2 pseudovirus = assay type: cell-based; conditions: pretreated 1 h, % of DMSO
A549-ACE2 cells = experiment: CCK8 cell viability assay in A549-ACE2 cells; assay type: cell-based, human
Procedure: as §1

SARS-CoV-2 replicon [6] = experiment: microbe, parasite or virus in culture; assay type: cell-based; conditions: human Huh7 cells, read-out: IC50, SARS-CoV-2 replicon luciferase activity
SARS-CoV-2 3CL^pro = target: T1, SARS-CoV-2 3CL^pro (Severe acute respiratory syndrome coronavirus 2, UniProt P0DTD1); assay type: biochemical; conditions: 37°C, 5 min incubation
T1 construct: One microliter of SARS-CoV-2 3CL^pro reagent; purchased Beyotime P0312S

[7] = CCK8 cell viability assay in BHK-21 cells; assay type: cell-based, hamster
Procedure: as §1

[8] = CCK8 cell viability assay in Huh7 cells; assay type: cell-based, human
Procedure: as §1

[9] = CCK8 cell viability assay in A549-ACE2 cells; assay type: cell-based, human; conditions: human
Procedure: as §1

[10] = BHK-21 cells, read-out: CC50 (CCK8 cell viability)
[11] = BHK-21, pretreated 1 h, […], vs DMSO
[12] = Severe acute respiratory syndrome coronavirus 2, pretreated 1 h, […]
[13] = Severe acute respiratory syndrome coronavirus 2, Huh-7, 24 h
[14] = human Huh7 cells, 24 h, read-out: CC50 (CCK8 cell viability)

With `COc1ccc2c(c1)c(C1=C(c3c[nH]c4ccccc34)C(=O)NC1=O)cn2CCCN(C)C` [Go 6983] the “Renilla luciferase activities vs DMSO-treated cells” value [1] was “comparable”, the “GFP levels vs DMSO-treated cells” value [1] was “comparable” and the CC50 (BHK-21 cells; [10]) was 16.9 µM. The CC50 (Huh7 cells) was 24.9 µM, the “percentage of N-positive cells” value (wild-type SARS-CoV-2 [2]) was 12% and the “replication levels of the ZIKV replicon” value [3] was “barely affected”. The “relative luciferase activity lower than that in DMSO-treated cells” value (SARS-CoV-2 replicon [4]) was “about 99%”, the “replicon luciferase activities at all tested time points vs DMSO” value (shortened to “replicon luciferase activities … vs DMSO”) (SARS-CoV-2 replicon [4]) was “constantly lower” and the IC50 (SARS-CoV-2 replicon [4]; pretreated 1 h, […]) was 0.087 µM. The “viral RNA level in supernatant, fold lower than DMSO” value (wild-type SARS-CoV-2 [5]) was “about 12 fold”, the “luciferase activity of pseudovirus relative to DMSO-treated cells (entry)” value (SARS-CoV-2 pseudovirus) was “about 35%” and the CC50 (A549-ACE2 cells) was 50 µM. It also gave an IC50 (SARS-CoV-2 replicon [6]) of 0.361 µM.

With `CN(C)CCCn1cc(C2=C(c3c[nH]c4ccccc34)C(=O)NC2=O)c2ccccc21` [bisindolylmaleimide I] the “Renilla luciferase activities vs DMSO-treated cells” value [1] was “comparable”, the “GFP levels vs DMSO-treated cells” value [1] was “comparable” and the CC50 (BHK-21 cells; [10]) was 15.9 µM. For the same compound, the CC50 (Huh7 cells) was 30 µM, the “percentage of N-positive cells” value (wild-type SARS-CoV-2 [2]) was 3% and the “replication levels of the ZIKV replicon” value [3] was “barely affected”. The “relative luciferase activity lower than that in DMSO-treated cells” value (SARS-CoV-2 replicon [4]) was about 96%, the “replicon luciferase activities … vs DMSO” value (SARS-CoV-2 replicon [4]) was “constantly lower” and the IC50 (SARS-CoV-2 replicon [4]; pretreated 1 h, […]) was 0.386 µM. The “viral RNA level in supernatant, fold lower than DMSO” value (wild-type SARS-CoV-2 [5]) was about 16 fold, the “luciferase activity of pseudovirus relative to DMSO-treated cells (entry)” value (SARS-CoV-2 pseudovirus) was about 24% and the CC50 (A549-ACE2 cells) was 50.9 µM. The IC50 (SARS-CoV-2 replicon [6]) was 0.413 µM.

In the case of `O=c1c2ccccc2[se]n1-c1ccccc1` [ebselen], the “replicon luciferase activity at 6 h (protein translation / polyprotein cleavage)” value (SARS-CoV-2 replicon [4]; [11]) is reported as “reduced” and the “SARS-CoV-2 3CLpro protease activity” value (SARS-CoV-2 3CL^pro) is reported as “dramatically reduced”.

`Cn1cc(C2=C(c3cn(C4CCN(Cc5ccccn5)CC4)c4ccccc34)C(=O)NC2=O)c2ccccc21` [enzastaurin] showed a CC50 at 24 h ([7]; hamster, CC50 (CCK8 cell viability)) of over 160 µM, a CC50 (BHK-21 cells; hamster) of 160 µM and a CC50 at 24 h ([8]; human) of 86.4 µM. For the same compound, the “percentage of N-positive cells” value (wild-type SARS-CoV-2 [2]) was 12%, the “relative luciferase activity lower than that in DMSO-treated cells” value (SARS-CoV-2 replicon [4]) was about 92% and the “replicon luciferase activities … vs DMSO” value (SARS-CoV-2 replicon [4]) was “constantly lower”. The IC50 (SARS-CoV-2 replicon [4]; [12]) was 0.929 µM, the “viral RNA level in supernatant, fold lower than DMSO” value (wild-type SARS-CoV-2 [5]) was about 3 fold and the “luciferase activity of pseudovirus relative to DMSO-treated cells (entry)” value (SARS-CoV-2 pseudovirus) was about 42%. For the same compound, the CC50 [9] was 80 µM and the IC50 (SARS-CoV-2 replicon [6]; [13]) was 0.93 µM.

For `CCC(CC)COC(=O)[C@H](C)N[P@](=O)(OC[C@H]1O[C@@](C#N)(c2ccc3c(N)ncnn23)[C@H](O)[C@@H]1O)Oc1ccccc1` [remdesivir], the “replicon luciferase activity at 6 h (protein translation / polyprotein cleavage)” value (SARS-CoV-2 replicon [4]; [11]) was “did not alter” and the “replicon luciferase activity at 24 h (RNA synthesis)” value (SARS-CoV-2 replicon [4]; [11]) was “significantly reduced”.

For `CC(=O)c1c(O)c(C)c(O)c(Cc2c(O)c3c(c(C(=O)/C=C/c4ccccc4)c2O)OC(C)(C)C=C3)c1O` [rottlerin], the CC50 at 24 h ([7]; hamster; BHK-21 cells; 24 h; read-out: CC50 (CCK8 cell viability)) was 1.43 µM, the CC50 at 24 h [8, 14] was 4.46 µM and the IC50 (SARS-CoV-2 replicon [4]; [12]) was 0.479 µM. The IC50 (SARS-CoV-2 replicon [6]; [13]) was 0.33 µM.

With `CN1CCN(c2nc(C3=C(c4c[nH]c5ccccc45)C(=O)NC3=O)c3ccccc3n2)CC1` [sotrastaurin] the CC50 at 24 h ([7]; hamster, BHK-21 cells; 24 h; read-out: CC50 (CCK8 cell viability)) was 82.2 µM, the CC50 at 24 h [8, 14] was 50.8 µM and the “relative luciferase activity lower than that in DMSO-treated cells” value (SARS-CoV-2 replicon [4]) was about 89%. The “replicon luciferase activities … vs DMSO” value (SARS-CoV-2 replicon [4]) was “constantly lower”, the IC50 (SARS-CoV-2 replicon [4]; [12]) was 2.67 µM and the “luciferase activity of pseudovirus relative to DMSO-treated cells (entry)” value (SARS-CoV-2 pseudovirus) was about 55%. It also gave an IC50 (SARS-CoV-2 replicon [6]; [13]) of 1.9 µM.
